{
  "source": "paper PMC4439194",
  "about": "(Biochimica et biophysica acta, 2014)",
  "target": "HmbR (Neisseria meningitidis, UniProt Q9JYA8)",
  "experiment": "UV-vis absorption and EPR of ferric heme-bound HmbR",
  "type": "binding",
  "conditions": "500 mM imidazole, pH 7.4; sixth axial ligand of the bound ferric heme",
  "data": [
    {"compound": "c1c[nH]cn1", "note": "[imidazole]", "values": [
      {"measurement": "UV-vis absorption and EPR of ferric heme-bound HmbR", "value": "change from pentacoordinate to hexacoordinate ligation upon addition of exogenous imidazole to ferric holoHmbR"}
    ]}
  ]
}
